Source: patent US20150299188A1, “HETEROCYCLIC COMPOUND” (priority 2012, published 2015)

Tested on: FLAP (5-lipoxygenase activating protein)
Assay: In vitro binding test: displacement of [3H]-7-chloro-3-(5-((3-fluoropyridin-2-yl)methoxy)-2-methylphenyl)-3,4-dihydroquinazolin-2(1H)-one from Sf9 microsome fractions
Set-up: species or system human and mouse
Conditions: Sf9 microsome fractions expressing FLAP; 100% = radioligand binding with 10 μM sodium 3-(3-(tert-butylsulfanyl)-1-(4-chlorobenzyl)-5-isopropyl-1H-indol-2-yl)-2,2-dimethylpropanoate, 0% = DMSO; test compound concentration not given
Summary of the method: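 Sf9 microsomes expressing human or mouse FLAP (2 μg/mL) preincubated with compound 10 min at room temperature, then 120 nM tritiated quinazolinone ligand added for 60 min; buffer 100 mM Tris-HCl pH 7.5 with NaCl, EDTA, DTT, glycerol, Tween20. Bound ligand filtered and counted by scintillation; 10 μM indole propanoate defines 100% inhibition, DMSO 0%.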

Cc1ccc(OCc2ccccc2F)cc1N1Cc2ccccc2NC1=O [Example 172, 3-(5-((2-fluorobenzyl)oxy)-2-methylphenyl)-3,4-dihydroquinazolin-2(1H)-one]
inhibitory rate (%): 80%

Cc1ccc(OCc2ccccc2Cl)cc1N1Cc2ccccc2NC1=O [Example 173, 3-(5-((2-chlorobenzyl)oxy)-2-methylphenyl)-3,4-dihydroquinazolin-2(1H)-one]
inhibitory rate (%): 70%

Cc1ccc(OCc2c(F)cc(Cl)cc2F)cc1N1Cc2ccccc2NC1=O [Example 174, 3-(5-((4-chloro-2,6-difluorobenzyl)oxy)-2-methylphenyl)-3,4-dihydroquinazolin-2(1H)-one]
inhibitory rate (%): 54%

Cc1ccc(OCc2cccs2)cc1N1Cc2ccccc2NC1=O [Example 175, 3-(2-methyl-5-(2-thienylmethoxyl)phenyl)-3,4-dihydroquinazolin-2(1H)-one]
inhibitory rate (%): 51%

COC(=O)c1ccc2c(c1)NC(=O)N(c1cc(OCc3c(F)cccc3F)ccc1C(=O)OC)C2 [Example 176, methyl 3-(5-((2,6-difluorobenzyl)oxy)-2-(methoxycarbonyl)phenyl)-2-oxo-1,2,3,4-tetrahydroquinazoline-7-carboxylate]
inhibitory rate (%): 95%

CCc1ccc(OCc2c(F)cccc2F)cc1N1Cc2ccc(C(=O)OC)cc2NC1=O [Example 177, methyl 3-(5-((2,6-difluorobenzyl)oxy)-2-ethylphenyl)-2-oxo-1,2,3,4-tetrahydroquinazoline-7-carboxylate]
inhibitory rate (%): 84%

CCc1ccc(OCc2c(F)cccc2F)cc1N1Cc2ccc(C(C)(C)O)cc2NC1=O [Example 178, 3-(5-((2,6-difluorobenzyl)oxy)-2-ethylphenyl)-7-(2-hydroxypropan-2-yl)-3,4-dihydroquinazolin-2(1H)-one]
inhibitory rate (%): 109%

CCc1ccc(OCc2c(F)cccc2F)cc1N1Cc2ccc(CO)cc2NC1=O [Example 179, 3-(5-((2,6-difluorobenzyl)oxy)-2-ethylphenyl)-7-(hydroxymethyl)-3,4-dihydroquinazolin-2(1H)-one]
inhibitory rate (%): 91%

Cc1ccc(OCc2c(F)cccc2F)cc1N1Cc2ccc(C(C)(C)O)cc2NC1=O [Example 180, 3-(5-((2,6-difluorobenzyl)oxy)-2-methylphenyl)-7-(2-hydroxypropan-2-yl)-3,4-dihydroquinazolin-2(1H)-one]
inhibitory rate (%): 81%

Cc1ccc(OCc2c(F)cccc2F)cc1N1Cc2ccc(CO)cc2NC1=O [Example 181, 3-(5-((2,6-difluorobenzyl)oxy)-2-methylphenyl)-7-(hydroxymethyl)-3,4-dihydroquinazolin-2(1H)-one]
inhibitory rate (%): 91%

Cc1cc2c(cc1N1Cc3ccc(C(=O)N4CCOCC4)cc3NC1=O)OC(c1ncccc1F)CC2 (centres unmarked) [Example 183, 3-(2-(3-fluoropyridin-2-yl)-6-methyl-3,4-dihydro-2H-chromen-7-yl)-7-(morpholin-4-ylcarbonyl)-3,4-dihydroquinazolin-2(1H)-one]
inhibitory rate (%): 96%

Cc1cc2c(cc1N1Cc3ccc(C(=O)NC4CC4)cc3NC1=O)OC(c1ncccc1F)CC2 (centres unmarked) [Example 184, N-cyclopropyl-3-(2-(3-fluoropyridin-2-yl)-6-methyl-3,4-dihydro-2H-chromen-7-yl)-2-oxo-1,2,3,4-tetrahydroquinazoline-7-carboxamide]
inhibitory rate (%): 97%

Cc1cc2c(cc1N1Cc3ccc(CO)cc3NC1=O)OC(c1ncccc1F)CC2 (centres unmarked) [Example 185, 3-(2-(3-fluoropyridin-2-yl)-6-methyl-3,4-dihydro-2H-chromen-7-yl)-7-(hydroxymethyl)-3,4-dihydroquinazolin-2(1H)-one]
inhibitory rate (%): 98%

Cc1ccc(OCc2c(F)cccc2F)cc1N1Cc2cc(CO)ccc2NC1=O [Example 186, 3-(5-((2,6-difluorobenzyl)oxy)-2-methylphenyl)-6-(hydroxymethyl)-3,4-dihydroquinazolin-2(1H)-one]
inhibitory rate (%): 62%
